PubChem BioAssay AID1963856 (Molecular Pharmacology Branch, DTP, NCI, 2024)

System: LG0567-F671-PDC KRAS tumor spheroid viability
Assay: Anticancer human tumor LG0567-F671-PDC patient-derived lung adenocarcinoma cell line growth inhibition [KRAS2]
Conditions: spheroids with HUVEC and MSC; for IC50: curve of first compound; for viability, T/C: stronger effect = lower value
How it was run: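 Combination screen of spheroid viability in tumor-cell co-cultures with endothelial (HUVEC) and mesenchymal stem cell stroma. Each agent was tested in half-log dilutions, topping at clinical Cmax or at 10 microM without a known Cmax.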

[1] = second compound 0.1 µM, first compound 0.0316 µM
[2] = second compound 0.1 µM, first compound 0.1 µM
[3] = second compound 0.1 µM, first compound 0.316 µM
[4] = second compound 0.1 µM, first compound 1 µM
[5] = second compound 0.1 µM, first compound 3.16 µM
[6] = second compound 0.1 µM, first compound 10 µM
[7] = second compound 0.316 µM, first compound 0.0316 µM
[8] = second compound 0.316 µM, first compound 0.1 µM
[9] = second compound 0.316 µM, first compound 0.316 µM
[10] = second compound 0.316 µM, first compound 1 µM
[11] = second compound 0.316 µM, first compound 3.16 µM
[12] = second compound 0.316 µM, first compound 10 µM
[13] = second compound 1 µM, first compound 0.0316 µM
[14] = second compound 1 µM, first compound 0.1 µM
[15] = second compound 1 µM, first compound 0.316 µM
[16] = second compound 1 µM, first compound 1 µM
[17] = second compound 1 µM, first compound 3.16 µM
[18] = second compound 1 µM, first compound 10 µM
[19] = second compound 3.16 µM, first compound 0.0316 µM
[20] = second compound 3.16 µM, first compound 0.1 µM
[21] = second compound 3.16 µM, first compound 0.316 µM
[22] = second compound 3.16 µM, first compound 1 µM
[23] = second compound 3.16 µM, first compound 3.16 µM
[24] = second compound 3.16 µM, first compound 10 µM
[25] = second compound 10 µM, first compound 0.0316 µM
[26] = second compound 10 µM, first compound 0.1 µM
[27] = second compound 10 µM, first compound 0.316 µM
[28] = second compound 10 µM, first compound 1 µM
[29] = second compound 10 µM, first compound 3.16 µM
[30] = second compound 10 µM, first compound 10 µM
[31] = second compound 0.1 µM, first compound 0.01 µM
[32] = second compound 0.316 µM, first compound 0.01 µM
[33] = second compound 1 µM, first compound 0.01 µM
[34] = second compound 3.16 µM, first compound 0.01 µM
[35] = second compound 10 µM, first compound 0.01 µM
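Note: drug exposure lasted seven days after spheroids formed for three days.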
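Throughout, for viability, T/C: 100% = DMSO vehicle control viability.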

| Compound | IC50 (second compound 0.1 µM) [nM] | IC50 (second compound 0.316 µM) [nM] | IC50 (second compound 1 µM) [nM] | IC50 (second compound 3.16 µM) [nM] | IC50 (second compound 10 µM) [nM] | viability, T/C [1] [%] | viability, T/C [2] [%] | viability, T/C [3] [%] | viability, T/C [4] [%] | viability, T/C [7] [%] | viability, T/C [8] [%] | viability, T/C [9] [%] | viability, T/C [10] [%] | viability, T/C [13] [%] | viability, T/C [14] [%] | viability, T/C [15] [%] | viability, T/C [16] [%] | viability, T/C [19] [%] | viability, T/C [20] [%] | viability, T/C [21] [%] | further results |
| --- | --- | --- | --- | --- | --- | --- | --- | --- | --- | --- | --- | --- | --- | --- | --- | --- | --- | --- | --- | --- | --- |
| CC(C)NCC(C(=O)N1CCN(c2ncnc3c2C(C)CC3O)CC1)c1ccc(Cl)cc1 (stereo not given) + CC1OCC2(CCN(c3cnc(Sc4ccnc(N)c4Cl)c(N)n3)CC2)C1N | < 31.6 | < 31.6 | < 31.6 | < 31.6 | < 31.6 | 48.9 | 38.3 | 29.8 | 31.9 | 37.1 | 30.9 | 21.5 | 20.5 | 26.4 | 22.4 | 14.3 | 11.9 | 21.2 | 17.3 | 10.9 | viability, T/C [5]: 33.6%; viability, T/C [6]: 36.5%; viability, T/C [11]: 18.6%; viability, T/C [12]: 16.6%; viability, T/C [17]: 10%; viability, T/C [18]: 6.25%; viability, T/C [22]: 5.23%; viability, T/C [23]: 4.49%; viability, T/C [24]: 3.72%; viability, T/C [25]: 6.83%; viability, T/C [26]: 7.98%; viability, T/C [27]: 5.46%; viability, T/C [28]: 3.11%; viability, T/C [29]: 2.15%; viability, T/C [30]: 1.82% |
| CC1COCCN1c1cc(-c2ccnn2C)c2ccnc(-c3ccn[nH]3)c2n1 (stereo not given) + CC1OCC2(CCN(c3cnc(Sc4ccnc(N)c4Cl)c(N)n3)CC2)C1N | < 10 | < 10 | < 10 | < 10 | < 10 | 41.8 | 32 | 36.3 | 41.7 | 31.8 | 24.9 | 18.5 | 21.6 | 23.4 | 19 | 15.3 | 10.2 | 16.3 | 10.9 | 7.95 | viability, T/C [31]: 59.9%; viability, T/C [5]: 48.2%; viability, T/C [32]: 39%; viability, T/C [11]: 27.5%; viability, T/C [33]: 28.2%; viability, T/C [17]: 9.22%; viability, T/C [34]: 23%; viability, T/C [22]: 8.32%; viability, T/C [23]: 3.11%; viability, T/C [35]: 14.4%; viability, T/C [25]: 12%; viability, T/C [26]: 7.07%; viability, T/C [27]: 3.98%; viability, T/C [28]: 2.99%; viability, T/C [29]: 1.57% |
| CCN1CCN(Cc2ccc(Nc3ncc(F)c(-c4cc(F)c5nc(C)n(C(C)C)c5c4)n3)nc2)CC1 + CC1OCC2(CCN(c3cnc(Sc4ccnc(N)c4Cl)c(N)n3)CC2)C1N | 6.46 | < 3.16 | < 3.16 | < 3.16 | < 3.16 | 41.1 | 41.2 | 39.9 | 39.1 | 27.7 | 25.5 | 23 | 24.2 | 20.7 | 17.7 | 16.5 | 20.5 | 16.1 | 10.6 | 10.9 | viability, T/C (second compound 0.1 µM, first compound 0.00316 µM): 54.8%; viability, T/C [31]: 48.2%; viability, T/C (second compound 0.316 µM, first compound 0.00316 µM): 35.5%; viability, T/C [32]: 30.2%; viability, T/C (second compound 1 µM, first compound 0.00316 µM): 26%; viability, T/C [33]: 23.1%; viability, T/C (second compound 3.16 µM, first compound 0.00316 µM): 15.2%; viability, T/C [34]: 16.7%; viability, T/C [22]: 14.9%; viability, T/C (second compound 10 µM, first compound 0.00316 µM): 10.4%; viability, T/C [35]: 7.73%; viability, T/C [25]: 6.15%; viability, T/C [26]: 6.13%; viability, T/C [27]: 7.13%; viability, T/C [28]: 15.3% |
| CCNC(=O)CC1N=C(c2ccc(Cl)cc2)c2cc(OC)ccc2-n2c(C)nnc21 (stereo not given) + CC1OCC2(CCN(c3cnc(Sc4ccnc(N)c4Cl)c(N)n3)CC2)C1N | 278 | 39.9 | < 31.6 | < 31.6 | < 31.6 | 69.1 | 71.4 | 46.2 | 30.9 | 48.4 | 50.9 | 32 | 20.2 | 34.5 | 28.7 | 21.5 | 11.2 | 22.7 | 18.6 | 12.2 | viability, T/C [5]: 23.5%; viability, T/C [6]: 23.8%; viability, T/C [11]: 14.3%; viability, T/C [12]: 14.1%; viability, T/C [17]: 8.48%; viability, T/C [18]: 8.48%; viability, T/C [22]: 7.87%; viability, T/C [23]: 4.55%; viability, T/C [24]: 4.52%; viability, T/C [25]: 10.9%; viability, T/C [26]: 11.7%; viability, T/C [27]: 7.18%; viability, T/C [28]: 2.24%; viability, T/C [29]: 1.59%; viability, T/C [30]: 0.97% |
| Cn1nccc1Nc1nccc(-c2cc3c(s2)C(C)(C)N(CCN2CCOCC2)C3=O)n1 + CC1OCC2(CCN(c3cnc(Sc4ccnc(N)c4Cl)c(N)n3)CC2)C1N | 180 | < 31.6 | < 31.6 | < 31.6 | < 31.6 | 60.6 | 52 | 46.3 | 38.9 | 36.8 | 35.9 | 29.7 | 24.3 | 32.6 | 29.5 | 21 | 18.3 | 18.6 | 19.6 | 17.9 | viability, T/C [5]: 24.1%; viability, T/C [6]: 23.4%; viability, T/C [11]: 21.5%; viability, T/C [12]: 18.2%; viability, T/C [17]: 16.4%; viability, T/C [18]: 12.4%; viability, T/C [22]: 9.57%; viability, T/C [23]: 7.17%; viability, T/C [24]: 10.8%; viability, T/C [25]: 10.2%; viability, T/C [26]: 10.7%; viability, T/C [27]: 10.5%; viability, T/C [28]: 4.14%; viability, T/C [29]: 3.55%; viability, T/C [30]: 5.13% |
| CC(=O)OC12COC1CC(O)C1(C)C(=O)C(O)C3=C(C)C(OC(=O)C(O)C(NC(=O)OC(C)(C)C)c4ccccc4)CC(O)(C(OC(=O)c4ccccc4)C21)C3(C)C (stereo not given) + CNCc1ccccc1-c1csc(C(C)Nc2nc(C)nc3cc(OC)c(OC)cc23)c1 | < 10 | < 10 | < 10 | < 10 | < 10 | 46.4 | 43.9 | 47.1 | 61.4 | 34.3 | 34.4 | 42.4 | 39.5 | 40.9 | 42.2 | 48.3 | 48.1 | 0.94 | 0.36 | 0.26 | viability, T/C [31]: 48.5%; viability, T/C [5]: 53.6%; viability, T/C [32]: 35.6%; viability, T/C [11]: 40%; viability, T/C [33]: 44%; viability, T/C [17]: 42.1%; viability, T/C [34]: 24%; viability, T/C [22]: 0.19%; viability, T/C [23]: 37.5%; viability, T/C [35]: 0.6%; viability, T/C [25]: 0.13%; viability, T/C [26]: 0.43%; viability, T/C [27]: 0.19%; viability, T/C [28]: 42.7%; viability, T/C [29]: 0.85% |
